Legend:
Assay in all cases: NCI In Vitro Cell Line Screening (SRB)
CCRF-CEM = format: cell-based, human; conditions: Leukemia, 48 h; for GI50 / CC50: Homo sapiens; for CC50: read-out: LC50 (the source's name)
EKVX = format: cell-based, human; conditions: Non-Small Cell Lung Cancer, 48 h; for GI50 / LC50: Homo sapiens
KM12 = format: cell-based, human; conditions: KM12, Colon Cancer, 48 h; for GI50 / CC50: Homo sapiens; for CC50: read-out: LC50 (the source's name)
SW-620 = format: cell-based; conditions: SW-620, Colon Cancer, 48 h; for GI50 / CC50: Homo sapiens; for CC50: read-out: LC50 (the source's name)
SF-295 = format: cell-based, human; conditions: SF-295, CNS Cancer, 48 h; for GI50 / CC50: Homo sapiens; for CC50: read-out: LC50 (the source's name)
SF-539 = format: cell-based, human; conditions: SF-539, CNS Cancer, 48 h; for GI50 / CC50: Homo sapiens; for CC50: read-out: LC50 (the source's name)
SNB-75 = format: cell-based, human; conditions: SNB-75, CNS Cancer, 48 h; for GI50 / CC50: Homo sapiens; for CC50: read-out: LC50 (the source's name)
U251 = format: cell-based, human; conditions: U251, CNS Cancer, 48 h; for GI50 / CC50: Homo sapiens, U-251; for CC50: read-out: LC50 (the source's name)
MALME-3M = format: cell-based, human; conditions: Melanoma, 48 h; for GI50 / CC50: Homo sapiens; for CC50: read-out: LC50 (the source's name)
M14 = format: cell-based, human; conditions: M14, Melanoma, 48 h; for GI50 / CC50: Homo sapiens; for CC50: read-out: LC50 (the source's name)
SK-MEL-5 = format: cell-based, human; conditions: SK-MEL-5, Melanoma, 48 h
ACHN = format: cell-based, human; conditions: Renal Cancer, 48 h; for GI50 / CC50: Homo sapiens; for CC50: read-out: LC50 (the source's name)
CAKI-1 = format: cell-based, human; conditions: CAKI-1, Renal Cancer, 48 h; for GI50 / CC50: Homo sapiens; for CC50: read-out: LC50 (the source's name)
TK-10 = format: cell-based, human; conditions: TK-10, Renal Cancer, 48 h; for GI50 / CC50: Homo sapiens; for CC50: read-out: LC50 (the source's name)
PC-3 = format: cell-based, human; conditions: PC-3, Prostate Cancer, 48 h; for GI50 / CC50: Homo sapiens; for CC50: read-out: LC50 (the source's name)
MCF7 = format: cell-based, human; conditions: MCF7, Breast Cancer, 48 h; for GI50 / CC50: Homo sapiens; for CC50: read-out: LC50 (the source's name)
NCI/ADR-RES = format: cell-based, human; conditions: Breast Cancer, 48 h; for GI50 / CC50: Homo sapiens; for CC50: read-out: LC50 (the source's name)
MDA-MB-231/ATCC = format: cell-based, human; conditions: Breast Cancer, 48 h; for GI50 / CC50: Homo sapiens; for CC50: read-out: LC50 (the source's name)
OVCAR-3 = conditions: for GI50 / CC50: Homo sapiens, OVCAR-3, 48 h; for CC50: read-out: LC50; for TGI: OVCAR-3, Ovarian Cancer, 48 h

In the case of `CC(C)(C)c1ccc(NC(=O)[C@H](CCCCN)NC(=O)OCC2c3ccccc3-c3ccccc32)cc1` [Compound 105, (S)-[5-AMINO-1-(4-TERT-BUTYL-PHENYLCARBAMOYL)-PENTYL]-CARBAMIC ACID 9H-FLUOREN-9-YLMETHYL ESTER], the GI50 (CCRF-CEM) is reported as 1.69 µM, the CC50 (CCRF-CEM) is reported as 6.47 µM and the TGI (CCRF-CEM) is reported as 3.31 µM. The GI50 (EKVX) was 21 µM, the LC50 (EKVX) was 90 µM and the TGI (EKVX) was 43.5 µM. The GI50 (KM12) was 14.8 µM, the CC50 (KM12) was 55.7 µM and the TGI (KM12) was 28.7 µM. The GI50 (SW-620) was 2.49 µM, the CC50 (SW-620) was 21.7 µM and the TGI (SW-620) was 6.24 µM. It also gave a GI50 (SF-295) of 3.74 µM, a CC50 (SF-295) of 65.3 µM and a TGI (SF-295) of 19.0 µM. The GI50 (SF-539) was 1.48 µM, the CC50 (SF-539) was 5.63 µM and the TGI (SF-539) was 2.89 µM. For the same compound, the GI50 (SNB-75) was 1.29 µM, the CC50 (SNB-75) was 5.97 µM and the TGI (SNB-75) was 2.78 µM. It also gave a GI50 (U251) of 4.74 µM, a CC50 (U251) of 48.3 µM and a TGI (U251) of 17.3 µM. For the same compound, the GI50 (MALME-3M) was 15.6 µM, the CC50 (MALME-3M) was 89.5 µM and the TGI (MALME-3M) was 37.4 µM. The GI50 (M14) was 1.77 µM, the CC50 (M14) was 6.55 µM and the TGI (M14) was 3.40 µM. The GI50 (SK-MEL-5; Homo sapiens) was 1.54 µM, the TGI (SK-MEL-5) was 2.94 µM and the GI50 (ACHN) was 15.7 µM. The CC50 (ACHN) was 58.5 µM, the TGI (ACHN) was 30.3 µM and the TGI (CAKI-1) was 43.9 µM. For the same compound, the GI50 (CAKI-1) was 19.8 µM, the CC50 (CAKI-1) was 97.2 µM and the GI50 (TK-10) was 14.1 µM. It also gave a CC50 (TK-10) of 82.9 µM, a TGI (TK-10) of 34.1 µM and a GI50 (PC-3) of 1.73 µM. The CC50 (PC-3) was 6.41 µM, the TGI (PC-3) was 3.33 µM and the GI50 (MCF7) was 0.546 µM. For the same compound, the CC50 (MCF7) was 4.75 µM, the TGI (MCF7) was 1.91 µM and the TGI (NCI/ADR-RES) was 1.1 µM. The GI50 (NCI/ADR-RES) was under 0.01 µM, the CC50 (NCI/ADR-RES) was 30.5 µM and the TGI (MDA-MB-231/ATCC) was 26.8 µM. For the same compound, the GI50 (MDA-MB-231/ATCC) was 11.1 µM, the CC50 (MDA-MB-231/ATCC) was 64.7 µM and the GI50 (OVCAR-3) was 16.1 µM. It also gave a CC50 (OVCAR-3) of 56.3 µM and a TGI (OVCAR-3) of 30.1 µM.
`Cc1ccc(NC(=O)[C@@H](CCCCN)NC(=O)Nc2ccc3c(c2)Cc2ccccc2-3)cc1` [Compound 173, (R)-6-AMINO-2-[3-(9H-FLUOREN-2-YL)-UREIDO]-HEXANOIC ACID P-TOLYLAMIDE] showed a GI50 (CCRF-CEM) of 1.97 µM, a CC50 (CCRF-CEM) of over 100 µM and a TGI (CCRF-CEM) of 5.15 µM. It also gave a GI50 (EKVX) of 1.19 µM, an LC50 (EKVX) of over 100 µM and a TGI (EKVX) of 46.2 µM. For the same compound, the GI50 (KM12) was 1.31 µM, the CC50 (KM12) was 5.07 µM and the TGI (KM12) was 2.57 µM. It also gave a GI50 (SW-620) of 1.67 µM, a CC50 (SW-620) of 6.12 µM and a TGI (SW-620) of 3.19 µM. It also gave a GI50 (SF-295) of 0.341 µM, a CC50 (SF-295) of 5.17 µM and a TGI (SF-295) of 2.07 µM. The GI50 (SF-539) was 1.92 µM, the CC50 (SF-539) was 11.9 µM and the TGI (SF-539) was 4.48 µM. It also gave a GI50 (SNB-75) of 1.61 µM, a CC50 (SNB-75) of over 100 µM and a TGI (SNB-75) of 4.65 µM. For the same compound, the GI50 (U251) was 1.49 µM, the CC50 (U251) was 5.3 µM and the TGI (U251) was 2.80 µM. The GI50 (MALME-3M) was 1.55 µM, the CC50 (MALME-3M) was 8.23 µM and the TGI (MALME-3M) was 3.57 µM. The GI50 (M14) was 3.43 µM, the CC50 (M14) was over 100 µM and the TGI (M14) was 11.4 µM. It also gave a GI50 (SK-MEL-5; Homo sapiens) of 1.03 µM, a CC50 (SK-MEL-5; Homo sapiens, read-out: LC50 (the source's name)) of 68.3 µM and a TGI (SK-MEL-5) of 26.5 µM. For the same compound, the GI50 (ACHN) was 12.2 µM, the CC50 (ACHN) was 54.7 µM and the TGI (ACHN) was 25.8 µM. For the same compound, the TGI (CAKI-1) was 34.0 µM, the GI50 (CAKI-1) was 0.135 µM and the CC50 (CAKI-1) was over 100 µM. It also gave a GI50 (TK-10) of 3.59 µM, a CC50 (TK-10) of 55.4 µM and a TGI (TK-10) of 17.6 µM. The GI50 (PC-3) was 2.78 µM, the CC50 (PC-3) was 44.5 µM and the TGI (PC-3) was 11.0 µM. The GI50 (MCF7) was 1.45 µM, the CC50 (MCF7) was 5.29 µM and the TGI (MCF7) was 2.77 µM. It also gave a TGI (NCI/ADR-RES) of over 100 µM, a GI50 (NCI/ADR-RES) of over 100 µM and a CC50 (NCI/ADR-RES) of over 100 µM. The TGI (MDA-MB-231/ATCC) was 2.57 µM, the GI50 (MDA-MB-231/ATCC) was 1.26 µM and the CC50 (MDA-MB-231/ATCC) was 5.24 µM. It also gave a GI50 (OVCAR-3) of 1.31 µM, a CC50 (OVCAR-3) of 31.6 µM and a TGI (OVCAR-3) of 9.94 µM.

— US20080171783A1, “COMPOSITIONS AND METHODS FOR TREATING HYPERPROLIFERATIVE DISEASE” (Migenix Inc., priority 2006, published 2008)
